In patent EP4810052A2, “HCRHR2 SELECTIVE POLYPEPTIDES” (Gubra A/S, priority 2023, dated 2026):
Starred links: 1 amine or outer side, 2 acyl side, 3 side chain; linkers in the order of their positions; H or OH if unused. Non-standard residues stand in square brackets, D forms with d. Residues, ends and D or L forms follow the SMILES beside them. Groups on a side chain read outwards from the residue. *: point of attachment. C20 diacid = O=C(O)CCCCCCCCCCCCCCCCCCC(=O)*; γGlu = O=C(O)[C@H](CCC(=O)[*:2])N[*:1]; NMeI = CC[C@H](C)[C@H](NC)C(=O)O; Nle = CCCC[C@H](N)C(=O)O; AEEA = NCCOCCOCC(=O)O; Aib = CC(C)(N)C(=O)O

Key:
rCRHR1 = biological target: T1, rCRHR1 (Rattus norvegicus, UniProt P35353); test: cAMP potency, transiently transfected CHO-K1 cells, rCRHR1; format: cell-based; conditions: transiently transfected CHO-K1, average n=3; read-out: Transient cell system EC50 (nM) rCRH R1
T1 construct: DYK (FLAG); host or cells: CHO-K1, transiently transfected
T1 sequence (P35353 24-415): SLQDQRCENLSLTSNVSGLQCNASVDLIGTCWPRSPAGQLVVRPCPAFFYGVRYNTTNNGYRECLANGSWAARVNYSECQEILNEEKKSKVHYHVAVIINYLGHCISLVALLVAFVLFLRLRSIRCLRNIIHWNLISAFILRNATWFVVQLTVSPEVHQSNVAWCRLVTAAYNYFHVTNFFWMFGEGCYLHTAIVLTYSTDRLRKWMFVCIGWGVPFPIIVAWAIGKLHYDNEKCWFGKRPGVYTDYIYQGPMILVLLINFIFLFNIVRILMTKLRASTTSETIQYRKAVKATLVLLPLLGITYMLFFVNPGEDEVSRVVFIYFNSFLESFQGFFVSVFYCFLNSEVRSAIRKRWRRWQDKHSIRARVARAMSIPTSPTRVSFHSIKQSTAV
Protocol: Selected peptides were tested for potency on different species (mouse, rat, porcine) using transiently transfected CHO-K1 cells using the general procedure.

[1] = Telemetry in Spontaneously Hypertensive Rats; format: in vivo; conditions: for Heart rate / Mean arterial pressure: rats
Source text: Blood pressure and heart rate were monitored in freely moving conscious animals by […] (DSI Data Science International, MN, USA). Female adult hypertensive rats (SHR) were implanted with transmitters. After shaving the abdominal wall, a midline abdominal incision was made, and the fluid-filled sensor catheter was inserted upstream into the exposed descending aorta between the iliac bifurcation and the renal arteries. According to the DSI guidelines the tip of the telemetric catheter was located just caudal to the renal arteries and secured by tissue adhesive. The transmitter body was affixed to the inner peritoneal - 3 - wall before closure of abdomen. A two-layer closure of the abdominal incision was used, with individual suturing of the peritoneum and the muscle wall followed by closure of the outer skin. Surgery was performed under aseptic conditions. For postsurgical protection against infections and pain a single dosage of an antibiotic (Ursocyclin 10% pro inj., Serumwerk, s.c.) and analgesic were injected (Rimadyl®, 4 mg/kg s.c., Pfizer, Germany). All animals were single-housed at 22-24°C ambient temperature and maintained on a 12/12 h dark-light cycle with free access to standard laboratory rat chow and water ad libitum.
All animals were treated with daily s.c. doses of vehicle or SEQ ID NO: 3, (10 or 30 nmol/kg) for 7 days (1 ml/kg). Drug administration took place at 9.00 a.m. (= 0 hours). For analysis, data were grouped to provide half-hourly averages.
For statistical analysis, 24 hours means were calculated starting from time of dosing. All data were evaluated using a 2-way ANOVA with Dunnett's test.

[2] = Acute effects on hemodynamics in anesthetized pigs; format: in vivo, Göttingen minipigs; conditions: anesthetized minipigs, ascending doses
Protocol: Göttingen minipigs were anesthetized and instrumented to continuous monitor hemodynamics during baseline measurement (0.5h), vehicle treatment (0.5h) and ascending doses of SEQ ID NO: 215 each 0.5 hours (10, 30, 100 and 300 µg/kg/min) and compared to a similar setup using Dobutamine (1, 3, 10 and 20 µg/kg/min) and vehicle (NaCl).

[3] = SHR rats, daily s.c. 10 or 30 nmol/kg for 7 days

In the case of `CCCC[C@H](NC(=O)[C@@H](NC(=O)[C@H](CCC(=O)O)NC(=O)[C@H](C)NC(=O)[C@H](CC(N)=O)NC(=O)C(C)(C)NC(=O)[C@H](CCCCNC(=O)COCCOCCNC(=O)COCCOCCNC(=O)CC[C@H](NC(=O)CC[C@H](NC(=O)CCCCCCCCCCCCCCCCCCC(=O)O)C(=O)O)C(=O)O)NC(=O)[C@H](C)NC(=O)[C@H](CCC(N)=O)NC(=O)[C@H](CCC(=O)O)NC(=O)[C@H](CCCNC(=N)N)NC(=O)[C@H](C)NC(=O)[C@H](C)NC(=O)[C@H](CCCNC(=N)N)NC(=O)[C@H](C)NC(=O)[C@H](CCCNC(=N)N)NC(=O)[C@H](C)NC(=O)[C@H](CCC(N)=O)NC(=O)[C@H](CO)NC(=O)[C@H](CC(C)C)NC(=O)[C@H](CC(C)C)NC(=O)[C@@H](NC(=O)[C@H](CCC(N)=O)NC(=O)[C@H](CC(C)C)NC(=O)[C@H](CC(C)C)NC(=O)CNC(=O)[C@@H](NC(=O)[C@@H]1CCCN1C(=O)[C@@H](NC(=O)[C@H](CC(=O)O)NC(=O)[C@H](CC(C)C)NC(=O)[C@H](CO)NC(=O)[C@H](CC(C)C)NC(=O)[C@@H](NC(=O)[C@@H]1CCCN1)C(C)C)C(C)C)[C@@H](C)CC)[C@@H](C)CC)[C@@H](C)CC)C(=O)N[C@@H](C)C(=O)N[C@@H](CCC(=O)O)C(=O)N[C@H](C(N)=O)C(C)C` [SEQ ID NO: 238] (H-PVLSLDVPIGLLQILLSQARARAAREQAK([AEEA-AEEA-γGlu-γGlu-C20 diacid])[Aib]NAEI[Nle]AEV-NH2), the EC50 (rCRHR1) is reported as > 1000 nM.
For `CC[C@H](C)[C@H](N)C(=O)N[C@H](C(=O)N[C@@H](CC(C)C)C(=O)N[C@@H](CO)C(=O)N[C@@H](CC(C)C)C(=O)N[C@@H](CC(=O)O)C(=O)N[C@H](C(=O)N1CCC[C@H]1C(=O)N[C@H](C(=O)NCC(=O)N[C@@H](CC(C)C)C(=O)N[C@@H](CC(C)C)C(=O)N[C@@H](CCC(N)=O)C(=O)N[C@H](C(=O)N[C@@H](CC(C)C)C(=O)N[C@@H](CC(C)C)C(=O)N[C@@H](CCC(=O)O)C(=O)N[C@@H](CCC(N)=O)C(=O)N[C@@H](C)C(=O)N[C@@H](CCCNC(=N)N)C(=O)N[C@@H](C)C(=O)N[C@@H](CCCNC(=N)N)C(=O)N[C@@H](C)C(=O)N[C@@H](C)C(=O)N[C@@H](CCCNC(=N)N)C(=O)N[C@@H](CCC(=O)O)C(=O)N[C@@H](CCC(N)=O)C(=O)N[C@@H](C)C(=O)N[C@@H](CCCCNC(=O)COCCOCCNC(=O)COCCOCCNC(=O)CC[C@H](NC(=O)CC[C@H](NC(=O)CCCCCCCCCCCCCCCCCCC(=O)O)C(=O)O)C(=O)O)C(=O)N[C@H](C(=O)N[C@@H](CC(N)=O)C(=O)N[C@@H](C)C(=O)N[C@@H](CCC(=O)O)C(=O)N[C@H](C(=O)N[C@@H](CC(C)C)C(=O)N[C@@H](C)C(=O)N[C@@H](CCC(=O)O)C(=O)N[C@H](C(N)=O)C(C)C)[C@@H](C)CC)[C@@H](C)O)[C@@H](C)CC)[C@@H](C)CC)C(C)C)C(C)C` [SEQ ID NO: 3] (H-IVLSLDVPIGLLQILLEQARARAAREQAK([AEEA-AEEA-γGlu-γGlu-C20 diacid])TNAEILAEV-NH2), the HR [1, 3] was “transient and dose-dependent increase”, the blood pressure [1, 3] was “transient and dose-dependent decrease” and the Heart rate ([1]; 10 nmol/kg, Day 0) was 345.67 ± 5.3 BPM. For the same molecule, the Mean arterial pressure ([1]; 10 nmol/kg, Day 0) was 130.83 ± 2.1 mmHg, the Heart rate ([1]; 10 nmol/kg, Day 1) was 330.67 ± 6.2 BPM and the Mean arterial pressure ([1]; 10 nmol/kg, Day 1) was 130.33 ± 1.8 mmHg. The Heart rate ([1]; 10 nmol/kg, Day 2) was 324.00 ± 5.2 BPM, the Mean arterial pressure ([1]; 10 nmol/kg, Day 2) was 136.17 ± 2.0 mmHg and the Heart rate ([1]; 10 nmol/kg, Day 3) was 324.00 ± 5.2 BPM. It also gave a Mean arterial pressure ([1]; 10 nmol/kg, Day 3) of 139.17 ± 2.3 mmHg, a Heart rate ([1]; 10 nmol/kg, Day 4) of 323.33 ± 7.4 BPM and a Mean arterial pressure ([1]; 10 nmol/kg, Day 4) of 137.67 ± 2.4 mmHg. The Heart rate ([1]; 10 nmol/kg, Day 5) was 320.50 ± 7.0 BPM, the Mean arterial pressure ([1]; 10 nmol/kg, Day 5) was 139.00 ± 2.9 mmHg and the Heart rate ([1]; 10 nmol/kg, Day 6) was 315.67 ± 7.2 BPM. The Mean arterial pressure ([1]; 10 nmol/kg, Day 6) was 138.50 ± 2.4 mmHg, the Heart rate ([1]; 10 nmol/kg, Day -1) was 314.50 ± 4.8 BPM and the Mean arterial pressure ([1]; 10 nmol/kg, Day -1) was 145.33 ± 3.1 mmHg. For the same molecule, the Heart rate ([1]; 30 nmol/kg, Day 0) was 364.50 ± 5.4 BPM, the Mean arterial pressure ([1]; 30 nmol/kg, Day 0) was 126.25 ± 2.5 mmHg and the Heart rate ([1]; 30 nmol/kg, Day 1) was 334.00 ± 4.8 BPM. For the same molecule, the Mean arterial pressure ([1]; 30 nmol/kg, Day 1) was 130.00 ± 2.4 mmHg, the Heart rate ([1]; 30 nmol/kg, Day 2) was 327.50 ± 2.7 BPM and the Mean arterial pressure ([1]; 30 nmol/kg, Day 2) was 141.00 ± 3.1 mmHg. It also gave a Heart rate ([1]; 30 nmol/kg, Day 3) of 325.88 ± 4.2 BPM, a Mean arterial pressure ([1]; 30 nmol/kg, Day 3) of 142.50 ± 2.7 mmHg and a Heart rate ([1]; 30 nmol/kg, Day 4) of 325.38 ± 6.4 BPM. It also gave a Mean arterial pressure ([1]; 30 nmol/kg, Day 4) of 141.00 ± 3.1 mmHg, a Heart rate ([1]; 30 nmol/kg, Day 5) of 323.50 ± 5.5 BPM and a Mean arterial pressure ([1]; 30 nmol/kg, Day 5) of 141.75 ± 2.6 mmHg. For the same molecule, the Heart rate ([1]; 30 nmol/kg, Day 6) was 328.88 ± 5.8 BPM, the Mean arterial pressure ([1]; 30 nmol/kg, Day 6) was 141.75 ± 2.7 mmHg and the Heart rate ([1]; 30 nmol/kg, Day -1) was 322.38 ± 5.9 BPM. It also gave a Mean arterial pressure ([1]; 30 nmol/kg, Day -1) of 148.88 ± 3.1 mmHg.
In the case of `CCCC[C@H](NC(=O)[C@@H](NC(=O)[C@H](CCC(=O)O)NC(=O)C(C)(C)NC(=O)[C@H](CC(N)=O)NC(=O)[C@@H](NC(=O)[C@H](CCCCNC(=O)COCCOCCNC(=O)COCCOCCNC(=O)CC[C@H](NC(=O)CC[C@H](NC(=O)CCCCCCCCCCCCCCCCCCC(=O)O)C(=O)O)C(=O)O)NC(=O)[C@H](C)NC(=O)[C@H](CCC(N)=O)NC(=O)[C@H](CCC(=O)O)NC(=O)[C@H](CCCNC(=N)N)NC(=O)[C@H](C)NC(=O)[C@H](C)NC(=O)[C@H](CCCNC(=N)N)NC(=O)[C@H](C)NC(=O)[C@H](CCCNC(=N)N)NC(=O)[C@H](C)NC(=O)[C@H](CCC(N)=O)NC(=O)[C@H](CO)NC(=O)[C@H](CC(C)C)NC(=O)[C@H](CC(C)C)NC(=O)[C@@H](NC(=O)[C@H](CCC(N)=O)NC(=O)[C@H](CC(C)C)NC(=O)[C@H](CC(C)C)NC(=O)CNC(=O)[C@@H](NC(=O)[C@@H]1CCCN1C(=O)[C@@H](NC(=O)[C@H](CC(=O)O)NC(=O)[C@H](CC(C)C)NC(=O)[C@H](CO)NC(=O)[C@H](CC(C)C)NC(=O)[C@@H](NC(=O)[C@@H](NC)[C@@H](C)CC)C(C)C)C(C)C)[C@@H](C)CC)[C@@H](C)CC)[C@@H](C)O)[C@@H](C)CC)C(=O)N[C@@H](C)C(=O)N[C@@H](CCC(=O)O)C(=O)N[C@H](C(N)=O)C(C)C` [SEQ ID NO: 215] (H-[NMeI]VLSLDVPIGLLQILLSQARARAAREQAK([AEEA-AEEA-γGlu-γGlu-C20 diacid])TN[Aib]EI[Nle]AEV-NH2), the “inotropic effects (contractility)” value ([2]; Fig. 11A) is reported as “positive inotropic effects”, the coronary blood flow ([2]; Fig. 11B) is reported as “increasing” and the “O2 consumption (rate pressure product)” value ([2]; Figs. 11C and 11D) is reported as “increasing”.
